US20240150293A1, “SPIROCYCLOHEXANE DERIVATIVES, PHARMACEUTICAL COMPOSITIONS CONTAINING THEM AND THEIR USES AS ANTI-APOPTOTIC INHIBITORS” (LES LABORATOIRES SERVIER, priority 2021, published 2024)

These molecules were tested against Mcl-1 protein (UniProtKB Q07820) (Homo sapiens (Human), UniProt Q07820) (assay: Inhibition of Mcl-1 by the fluorescence polarisation assay (Example A, Method A)). Settings: fluorescence polarization assay.
Type: binding
Procedure, shortened: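 Protein (5 nM) and fluorescein-tagged peptide tracer (1 nM) incubated with 11-point compound series for 2 h at room temperature in HEPES/NaCl/Tween 20 buffer, pH 7.4, 5% DMSO. Displacement read as decrease in polarisation; IC50 fitted by 4-parameter logistic, converted to Ki (cKi or eKi).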

Sequence of Mcl-1 protein (Q07820 whole entry): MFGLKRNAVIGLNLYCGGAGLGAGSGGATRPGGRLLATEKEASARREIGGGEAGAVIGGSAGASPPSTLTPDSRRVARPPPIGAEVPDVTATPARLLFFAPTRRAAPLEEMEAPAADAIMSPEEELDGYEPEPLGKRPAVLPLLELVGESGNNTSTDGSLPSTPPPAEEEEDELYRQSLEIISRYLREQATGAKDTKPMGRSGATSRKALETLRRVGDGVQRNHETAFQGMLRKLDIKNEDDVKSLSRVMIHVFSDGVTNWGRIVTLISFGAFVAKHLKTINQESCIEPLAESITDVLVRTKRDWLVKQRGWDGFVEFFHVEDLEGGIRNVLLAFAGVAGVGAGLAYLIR

SMILES | Ki [nM]
O=C(O)[C@]1(Nc2cccc(Cl)c2)CC[C@@]2(CC1)c1ccccc1[C@@H]1C[C@@H]12 (single isomer, unassigned) [Example 107, (1r,1′aR*,4r,6′aS*)-4-(3-chloroanilino)-1′a,6′a-dihydro-1′H-spiro[cyclohexane-1,6′-cyclopropa[a]indene]-4-carboxylic acid] | 1870
O=C(O)[C@]1(Nc2cccc(Cl)c2)CC[C@]2(CC1)C(c1ccccc1)=Cc1ccccc12 [Example 305, (1s,4s)-4-(3-chloroanilino)-2′-phenylspiro[cyclohexane-1,1′-indene]-4-carboxylic acid] | 663
Cc1cccc(CCOCC2=Cc3ccccc3[C@]23CC[C@@](Nc2cccc(Cl)c2)(C(=O)O)CC3)c1 [Example 411, (1s,4s)-4-(3-chloroanilino)-2′-{[2-(3-methylphenyl)ethoxy]methyl}spiro[cyclohexane-1,1′-indene]-4-carboxylic acid] | 583
O=C(O)C1(Nc2cccc(Br)c2)CCC2(CC1)CNc1ccccc12 (centres unmarked) [Example 3, 4-(3-bromoanilino)-1′,2′-dihydrospiro[cyclohexane-1,3′-indole]-4-carboxylic acid] | 12800
O=C(O)[C@]1(Nc2cccc(Cl)c2)CC[C@@]2(CC1)c1ccccc1CC2CC(COCCN1CCOCC1)COc1ccnc2c1CCC2 (single isomer, unassigned) [Example 495, (1r,4r)-4-(3-chloroanilino)-2′-(2-{[(6,7-dihydro-5H-cyclopenta[b]pyridin-4-yl)oxy]methyl}-3-[2-(morpholin-4-yl)ethoxy]propyl)-2′,3′-dihydrospiro[cyclohexane-1,1′-indene]-4-carboxylic acid] | 11.4
COCCOc1cc(N[C@]2(C(=O)O)CC[C@@]3(CC2)C(Br)=Cc2ccccc23)ccn1 [Example 81, (1s,4s)-2′-bromo-4-{[2-(2-methoxyethoxy)pyridin-4-yl]amino}spiro[cyclohexane-1,1′-indene]-4-carboxylic acid] | 15500
O=C(O)[C@]1(Nc2cccc(Cl)c2)CC[C@]2(CC1)C(Br)=Cc1c(Cl)cccc12 [Example 137, (1s,4s)-2′-bromo-4′-chloro-4-(3-chloroanilino)spiro[cyclohexane-1,1′-indene]-4-carboxylic acid] | 192
O=C(O)[C@]1(Nc2cccc(Br)c2)CC[C@@]2(CCCc3ccccc32)CC1 [Example 119, (1r,4s)-4-(3-bromoanilino)-3′,4′-dihydro-2′H-spiro[cyclohexane-1,1′-naphthalene]-4-carboxylic acid] | 836
Nc1cc(Cl)c(OCCCC2Cc3ccccc3[C@]23CC[C@@](Nc2cccc(Cl)c2)(C(=O)O)CC3)c(Cl)c1 (some centres unmarked) [Example 429, (1r,4r)-2′-[3-(4-amino-2,6-dichlorophenoxy)propyl]-4-(3-chloroanilino)-2′,3′-dihydrospiro[cyclohexane-1,1′-indene]-4-carboxylic acid] | 165
O=C(O)[C@]1(Nc2cccc(Cl)c2)CC[C@]2(CC1)C(c1cc3c(-c4ccncc4)cccc3o1)=Cc1ccccc12 [Example 361, (1s,4s)-4-(3-chloroanilino)-2′-[4-(pyridin-4-yl)-1-benzofuran-2-yl]spiro[cyclohexane-1,1′-indene]-4-carboxylic acid] | 14800
O=C(O)[C@]1(Nc2cccc(Cl)c2)CC[C@]2(CC1)C(Br)=Cc1cc(F)ccc12 [Example 138, (1s,4s)-2′-bromo-4-(3-chloroanilino)-5′-fluorospiro[cyclohexane-1,1′-indene]-4-carboxylic acid] | 219
CC1=C(C)[C@]2(CC[C@](Nc3cccc(Br)c3)(C(=O)O)CC2)c2ccccc21 [Example 202, (1r,4r)-4-(3-bromoanilino)-2′,3′-dimethylspiro[cyclohexane-1,1′-indene]-4-carboxylic acid] | 300
COc1cccc(N2C(=O)c3ccccc3[C@]23CC[C@@](Nc2cccc(Br)c2)(C(=O)O)CC3)c1 [Example 30, (1s,4s)-4-(3-bromoanilino)-2′-(3-methoxyphenyl)-3′-oxo-2′,3′-dihydrospiro[cyclohexane-1,1′-isoindole]-4-carboxylic acid] | 9250

Second part, the molecule after the results:

Ki [nM] | SMILES
224 | O=C(O)[C@]1(Nc2cccc(Cl)c2)CC[C@@]2(CC1)c1ccccc1CC2CCCOc1ccccc1 (some centres unmarked) [Example 423, (1r,4r)-4-(3-chloroanilino)-2′-(3-phenoxypropyl)-2′,3′-dihydrospiro[cyclohexane-1,1′-indene]-4-carboxylic acid]
598 | O=C(O)[C@]1(Nc2cccc(Cl)c2)CC[C@@]2(CC1)c1ccccc1CC2CCCSc1ccccc1 (some centres unmarked) [Example 397, (1r,4r)-4-(3-chloroanilino)-2′-[3-(phenylsulfanyl)propyl]-2′,3′-dihydrospiro[cyclohexane-1,1′-indene]-4-carboxylic acid]
189 | O=C(O)[C@]1(Nc2cccc(Cl)c2)CC[C@@]2(CC1)c1ccccc1CC2c1cccc(Oc2cccnc2)c1 (single isomer, unassigned) [Example 374, (1r,4r)-4-(3-chloroanilino)-2′-{3-[(pyridin-3-yl)oxy]phenyl}-2′,3′-dihydrospiro[cyclohexane-1,1′-indene]-4-carboxylic acid]
95.9 | O=C(O)[C@]1(Nc2cccc(Cl)c2)CC[C@]2(CC1)C(CCCOc1ccccc1)=Cc1ccccc12 [Example 422, (1r,4r)-4-(3-chloroanilino)-2′-(3-phenoxypropyl)spiro[cyclohexane-1,1′-indene]-4-carboxylic acid]
578 | Cc1cc(C2Cc3ccccc3C23CCC(Nc2cccc(Br)c2)(C(=O)O)CC3)cs1 (centres unmarked) [Example 232, 4-(3-bromoanilino)-2′-(5-methylthiophen-3-yl)-2′,3′-dihydrospiro[cyclohexane-1,1′-indene]-4-carboxylic acid]
1320 | O=C(O)C1(Nc2cccc(Cl)c2)CCC2(CC1)c1ccccc1CC2c1ccc(OCc2cccnc2)cc1 (centres unmarked) [Example 368, (1r,4r)-4-(3-chloroanilino)-2′-{4-[(pyridin-3-yl)methoxy]phenyl}-2′,3′-dihydrospiro[cyclohexane-1,1′-indene]-4-carboxylic acid]
3090 | O=C(O)[C@]1(Nc2cccc(Cl)c2)CC[C@@]2(CC1)c1ccccc1CC2c1ccc(Oc2ccncc2)cc1 (single isomer, unassigned) [Example 365, (1r,4r)-4-(3-chloroanilino)-2′-{4-[(pyridin-4-yl)oxy]phenyl}-2′,3′-dihydrospiro[cyclohexane-1,1′-indene]-4-carboxylic acid]
2540 | COc1cccc(C2Cc3ccccc3[C@]23CC[C@@](Nc2cccc(Cl)c2)(C(=O)O)CC3)c1Cl (single isomer, unassigned) [Example 291, (1r,4r)-4-(3-chloroanilino)-2′-(2-chloro-3-methoxyphenyl)-2′,3′-dihydrospiro[cyclohexane-1,1′-indene]-4-carboxylic acid]
2480 | Cc1cncn(CCCC2Cc3ccccc3[C@]23CC[C@@](Nc2cccc(Cl)c2)(C(=O)O)CC3)c1=O (some centres unmarked) [Example 183, (1r,4r)-4-(3-chloroanilino)-2′-[3-(5-methyl-6-oxopyrimidin-1 (6H)-yl)propyl]-2′,3′-dihydrospiro[cyclohexane-1,1′-indene]-4-carboxylic acid]
202 | COc1cncnc1OCCCC1Cc2ccccc2[C@]12CC[C@@](Nc1cccc(Cl)c1)(C(=O)O)CC2 (some centres unmarked) [Example 438, (1r,4r)-4-(3-chloroanilino)-2′-{3-[(5-methoxypyrimidin-4-yl)oxy]propyl}-2′,3′-dihydrospiro[cyclohexane-1,1′-indene]-4-carboxylic acid]
